Measured values published in patent publication US12071441B2, “10-(di(phenyl)methyl)-4-hydroxy-8,9,9A,10-tetrahydro-7H-pyrrolo[1′,2′:4,5]pyrazino[1,2-b]pyridazine-3,5-dione derivatives and related compounds as inhibitors of the orthomyxovirus replication for treating influenza” (Novartis AG, priority 2018, dated 2024).

Experiments:
Test in all cases: microbe, parasite or virus in culture
Type in all cases: cell-based
[1] = system: influenza A virus minigenome (PB2, PB1, PA, NP; luciferase reporter) in 293T cells, RNP_Alaska; details: HEK-293T, 48 h
[2] = system: influenza A virus minigenome (PB2, PB1, PA, NP; luciferase reporter) in 293T cells, RNP_CAL; details: HEK-293T, 48 h, read-out: RNP_CAL_EC50
[3] = system: influenza A virus minigenome (PB2, PB1, PA, NP; luciferase reporter) in 293T cells, RNP_Hubei; details: HEK-293T, 48 h

Compound COC(=O)OCOc1c2n(ncc1=O)[C@@H]([C@H](c1ccc(F)cc1)c1cccc(F)c1F)[C@H]1CCCN1C2=O [Example 82, (((9aR,10S)-10-((R)-(2,3-difluorophenyl)(4-fluorophenyl)methyl)-3,5-dioxo-3,5,8,9,9a,10-hexahydro-7H-pyrrolo[1′,2′:4,5]pyrazino[1,2-b]pyridazin-4-yl)oxy)methyl methyl carbonate] has an EC50 [1] of under 100 nM, an EC50 [2] of under 100 nM and an EC50 [3] of under 100 nM.
With CCN(C)C(=O)OCOc1c2n(ncc1=O)[C@@H]([C@H](c1ccccc1)c1cccc(F)c1F)[C@H]1CCCN1C2=O [Example 68, (((9aR,10S)-10-((R)-(2,3-difluorophenyl)(phenyl)methyl)-3,5-dioxo-3,5,8,9,9a,10-hexahydro-7H-pyrrolo[1′,2′:4,5]pyrazino[1,2-b]pyridazin-4-yl)oxy)methyl ethyl(methyl)carbamate] the EC50 [1] was at least 1000 nM, the EC50 [2] was at least 1000 nM and the EC50 [3] was at least 1000 nM.
CC(C)C(=O)Oc1c2n(ncc1=O)[C@@H]([C@H](c1cccc(F)c1)c1cccc(F)c1F)[C@H]1CCCN1C2=O [Example 107, (9aR,10S)-10-((R)-(2,3-difluorophenyl)(3-fluorophenyl)methyl)-3,5-dioxo-3,5,8,9,9a,10-hexahydro-7H-pyrrolo[1′,2′:4,5]pyrazino[1,2-b]pyridazin-4-yl isobutyrate] showed an EC50 [1] of under 100 nM, an EC50 [2] of under 100 nM and an EC50 [3] of under 100 nM.
For CC(C)(C)OC(=O)Oc1c2n(ncc1=O)[C@@H]([C@H](c1ccccc1)c1cccc(F)c1F)[C@H]1CCCN1C2=O [Example 49, tert-butyl ((9aR,10S)-10-((R)-(2,3-difluorophenyl)(phenyl)methyl)-3,5-dioxo-3,5,8,9,9a,10-hexahydro-7H-pyrrolo[1′,2′:4,5]pyrazino[1,2-b]pyridazin-4-yl) carbonate], the EC50 [1] was under 100 nM, the EC50 [2] was under 100 nM and the EC50 [3] was under 100 nM.
With O=C(Oc1c2n(ncc1=O)[C@@H]([C@H](c1cccc(F)c1)c1cccc(F)c1F)[C@H]1CCCN1C2=O)N1CCCCC1 [Example 98, (9aR,10S)-10-((R)-(2,3-difluorophenyl)(3-fluorophenyl)methyl)-3,5-dioxo-3,5,8,9,9a,10-hexahydro-7H-pyrrolo[1′,2′:4,5]pyrazino[1,2-b]pyridazin-4-yl piperidine-1-carboxylate] the EC50 [1] was at least 1000 nM, the EC50 [2] was at least 1000 nM and the EC50 [3] was at least 1000 nM.
With CN(C)C(=O)Oc1c2n(ncc1=O)[C@@H]([C@H](c1cccc(F)c1)c1cccc(F)c1F)[C@H]1CCCN1C2=O [Example 96, (9aR,10S)-10-((R)-(2,3-difluorophenyl)(3-fluorophenyl)methyl)-3,5-dioxo-3,5,8,9,9a,10-hexahydro-7H-pyrrolo[1′,2′:4,5]pyrazino[1,2-b]pyridazin-4-yl dimethylcarbamate] the EC50 [1] was at least 1000 nM, the EC50 [2] was at least 1000 nM and the EC50 [3] was 100 to 1000 nM.
COCCOC(=O)OCOc1c2n(ncc1=O)[C@@H]([C@H](c1ccc(F)cc1)c1cccc(F)c1F)[C@H]1CCCN1C2=O [Example 86, (((9aR,10S)-10-((R)-(2,3-difluorophenyl)(4-fluorophenyl)methyl)-3,5-dioxo-3,5,8,9,9a,10-hexahydro-7H-pyrrolo[1′,2′:4,5]pyrazino[1,2-b]pyridazin-4-yl)oxy)methyl (2-methoxyethyl) carbonate] gave an EC50 [1] of under 100 nM, an EC50 [2] of under 100 nM and an EC50 [3] of under 100 nM.
O=C1c2c(O)c(=O)cnn2[C@@H]([C@H](c2ccc(F)cc2)c2cccc(OC(F)(F)F)c2)[C@H]2CCCN12 [Example 22, (9aR,10S)-10-((R)-(4-fluorophenyl)(3-(trifluoromethoxy)phenyl)methyl)-4-hydroxy-8,9,9a,10-tetrahydro-7H-pyrrolo[1′,2′:4,5]pyrazino[1,2-b]pyridazine-3,5-dione] was tested, and the EC50 [1] was 100 to 1000 nM, the EC50 [2] was 100 to 1000 nM and the EC50 [3] was 100 to 1000 nM.
O=C1c2c(O)c(=O)cnn2[C@@H]([C@H](c2ccccc2)c2cccc(F)c2F)[C@@H]2COCCN12 [Example 14, (10aR,11S)-11-((R)-(2,3-difluorophenyl)(phenyl)methyl)-4-hydroxy-7,8,10a,11-tetrahydro-10H-pyridazino[1′,6′:4,5]pyrazino[2,1-c][1,4]oxazine-3,5-dione] gave an EC50 [1] of under 100 nM, an EC50 [2] of under 100 nM and an EC50 [3] of under 100 nM.
CC(C)OC(=O)OCOc1c2n(ncc1=O)[C@@H]([C@H](c1ccccc1)c1cccc(F)c1F)[C@H]1CCCN1C2=O [Example 52, (((9aR,10S)-10-((R)-(2,3-difluorophenyl)(phenyl)methyl)-3,5-dioxo-3,5,8,9,9a,10-hexahydro-7H-pyrrolo[1′,2′:4,5]pyrazino[1,2-b]pyridazin-4-yl)oxy)methyl isopropyl carbonate] showed an EC50 [1] of under 100 nM, an EC50 [2] of under 100 nM and an EC50 [3] of under 100 nM.
COC(=O)OCOc1c2n(ncc1=O)[C@@H]([C@H](c1cccc(F)c1)c1ccc(F)c(F)c1)[C@H]1CCCN1C2=O [Example 45, (((9aR,10S)-10-((R)-(3,4-difluorophenyl)(3-fluorophenyl)methyl)-3,5-dioxo-3,5,8,9,9a,10-hexahydro-7H-pyrrolo[1′,2′:4,5]pyrazino[1,2-b]pyridazin-4-yl)oxy)methyl methyl carbonate] was tested, and the EC50 [1] was under 100 nM, the EC50 [2] was under 100 nM and the EC50 [3] was under 100 nM.
In the case of CCN(CC)C(=O)Oc1c2n(ncc1=O)[C@@H]([C@H](c1ccccc1)c1cccc(F)c1F)[C@H]1CCCN1C2=O [Example 71, (9aR,10S)-10-((R)-(2,3-difluorophenyl)(phenyl)methyl)-3,5-dioxo-3,5,8,9,9a,10-hexahydro-7H-pyrrolo[1′,2′:4,5]pyrazino[1,2-b]pyridazin-4-yl diethylcarbamate], the EC50 [1] is reported as 100 to 1000 nM, the EC50 [2] is reported as 100 to 1000 nM and the EC50 [3] is reported as 100 to 1000 nM.
Compound O=C(Oc1c2n(ncc1=O)[C@@H]([C@H](c1ccccc1)c1cccc(F)c1F)[C@H]1CCCN1C2=O)C1CCOCC1 [Example 75, (9aR,10S)-10-((R)-(2,3-difluorophenyl)(phenyl)methyl)-3,5-dioxo-3,5,8,9,9a,10-hexahydro-7H-pyrrolo[1′,2′:4,5]pyrazino[1,2-b]pyridazin-4-yl tetrahydro-2H-pyran-4-carboxylate] has an EC50 [1] of under 100 nM, an EC50 [2] of under 100 nM and an EC50 [3] of under 100 nM.
In the case of CC(C)CC(=O)Oc1c2n(ncc1=O)[C@@H]([C@H](c1cccc(F)c1)c1cccc(F)c1F)[C@H]1CCCN1C2=O [Example 110, (9aR,10S)-10-((R)-(2,3-difluorophenyl)(3-fluorophenyl)methyl)-3,5-dioxo-3,5,8,9,9a,10-hexahydro-7H-pyrrolo[1′,2′:4,5]pyrazino[1,2-b]pyridazin-4-yl 3-methylbutanoate], the EC50 [1] is reported as under 100 nM, the EC50 [2] is reported as under 100 nM and the EC50 [3] is reported as under 100 nM.
COCCC(=O)Oc1c2n(ncc1=O)[C@@H]([C@H](c1ccccc1)c1cccc(F)c1F)[C@H]1CCCN1C2=O [Example 61, (9aR,10S)-10-((R)-(2,3-difluorophenyl)(phenyl)methyl)-3,5-dioxo-3,5,8,9,9a,10-hexahydro-7H-pyrrolo[1′,2′:4,5]pyrazino[1,2-b]pyridazin-4-yl 3-methoxypropanoate] was tested, and the EC50 [1] was under 100 nM, the EC50 [2] was under 100 nM and the EC50 [3] was under 100 nM.
With CN1CCN(C(=O)Oc2c3n(ncc2=O)[C@@H]([C@H](c2cccc(F)c2)c2cccc(F)c2F)[C@H]2CCCN2C3=O)CC1 [Example 100, (9aR,10S)-10-((R)-(2,3-difluorophenyl)(3-fluorophenyl)methyl)-3,5-dioxo-3,5,8,9,9a,10-hexahydro-7H-pyrrolo[1′,2′:4,5]pyrazino[1,2-b]pyridazin-4-yl 4-methylpiperazine-1-carboxylate] the EC50 [1] was at least 1000 nM, the EC50 [2] was at least 1000 nM and the EC50 [3] was 100 to 1000 nM.
For CN(C)C(=O)OCOc1c2n(ncc1=O)[C@@H]([C@H](c1ccccc1)c1cccc(F)c1F)[C@H]1CCCN1C2=O [Example 57, (((9aR,10S)-10-((R)-(2,3-difluorophenyl)(phenyl)methyl)-3,5-dioxo-3,5,8,9,9a,10-hexahydro-7H-pyrrolo[1′,2′:4,5]pyrazino[1,2-b]pyridazin-4-yl)oxy)methyl dimethylcarbamate], the EC50 [1] was under 100 nM, the EC50 [2] was under 100 nM and the EC50 [3] was under 100 nM.
With CCC(=O)Oc1c2n(ncc1=O)[C@@H]([C@H](c1ccccc1)c1cccc(F)c1F)[C@H]1CCCN1C2=O [Example 59, (9aR,10S)-10-((R)-(2,3-difluorophenyl)(phenyl)methyl)-3,5-dioxo-3,5,8,9,9a,10-hexahydro-7H-pyrrolo[1′,2′:4,5]pyrazino[1,2-b]pyridazin-4-yl propionate] the EC50 [1] was under 100 nM, the EC50 [2] was under 100 nM and the EC50 [3] was under 100 nM.
CC(C)C(=O)Oc1c2n(ncc1=O)[C@@H]([C@H](c1ccc(F)cc1)c1cccc(F)c1F)[C@H]1CCCN1C2=O [Example 84, (9aR,10S)-10-((R)-(2,3-difluorophenyl)(4-fluorophenyl)methyl)-3,5-dioxo-3,5,8,9,9a,10-hexahydro-7H-pyrrolo[1′,2′:4,5]pyrazino[1,2-b]pyridazin-4-yl isobutyrate] showed an EC50 [1] of under 100 nM, an EC50 [2] of under 100 nM and an EC50 [3] of under 100 nM.
For Cc1c(F)cccc1[C@@H](c1ccccc1)[C@H]1[C@H]2CCCN2C(=O)c2c(O)c(=O)cnn21 [Example 19, (9aR,10S)-10-((R)-(3-fluoro-2-methylphenyl)(phenyl)methyl)-4-(|1-oxidanyl)-8,9,9a,10-tetrahydro-7H-pyrrolo[1′,2′:4,5]pyrazino[1,2-b]pyridazine-3,5-dione], the EC50 [1] was under 100 nM, the EC50 [2] was under 100 nM and the EC50 [3] was under 100 nM.
COCCOC(=O)Oc1c2n(ncc1=O)[C@@H]([C@H](c1cccc(F)c1)c1cccc(F)c1F)[C@H]1CCCN1C2=O [Example 97, (9aR,10S)-10-((R)-(2,3-difluorophenyl)(3-fluorophenyl)methyl)-3,5-dioxo-3,5,8,9,9a,10-hexahydro-7H-pyrrolo[1′,2′:4,5]pyrazino[1,2-b]pyridazin-4-yl (2-methoxyethyl) carbonate] was tested, and the EC50 [1] was under 100 nM, the EC50 [2] was under 100 nM and the EC50 [3] was under 100 nM.
